In ChEMBL document CHEMBL1201862, “PubChem BioAssay data set” (2004):
Counter-ions that a name gives are not always drawn. The source made the active and inactive calls.

Columns and labels:
[1] = biological target: T1, Polyadenylate-binding protein 1 (Homo sapiens, UniProt P11940); experiment: MLLE binding blockers, Cy5 peptide tracer – biochemical, fluorescence polarization, Cy5-PAM2 peptide, secondary, miRNA deadenylation inhibitor project, dose response (AID 602260); type: functional; conditions: read-out: IC50_Mean
T1 sequence (P11940 whole entry, the tested form may be a part): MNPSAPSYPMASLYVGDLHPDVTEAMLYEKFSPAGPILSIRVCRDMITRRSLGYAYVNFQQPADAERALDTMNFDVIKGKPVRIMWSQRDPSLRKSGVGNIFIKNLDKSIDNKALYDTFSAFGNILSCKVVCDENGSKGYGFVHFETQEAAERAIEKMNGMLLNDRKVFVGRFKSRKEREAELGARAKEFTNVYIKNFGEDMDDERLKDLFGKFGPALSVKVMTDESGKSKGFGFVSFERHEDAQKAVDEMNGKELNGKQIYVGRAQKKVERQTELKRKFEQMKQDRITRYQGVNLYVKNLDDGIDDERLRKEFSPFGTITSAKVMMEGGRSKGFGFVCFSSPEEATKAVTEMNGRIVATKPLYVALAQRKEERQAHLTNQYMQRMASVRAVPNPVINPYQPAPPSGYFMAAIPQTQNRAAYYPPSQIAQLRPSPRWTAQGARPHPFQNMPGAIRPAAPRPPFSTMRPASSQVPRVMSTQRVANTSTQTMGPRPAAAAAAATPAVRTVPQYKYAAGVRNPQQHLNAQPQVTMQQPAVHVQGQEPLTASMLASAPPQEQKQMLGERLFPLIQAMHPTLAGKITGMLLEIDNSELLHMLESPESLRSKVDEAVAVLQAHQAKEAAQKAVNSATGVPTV

[2] = biological target: T1, Polyadenylate-binding protein 1; experiment: MLLE domain peptide-binding blockers, IC50 – biochemical, fluorescence polarization, FITC-PAM2 peptide, dose response (AID 602259); type: functional; conditions: read-out: IC50_Mean
[3] = biological target: T2, Protein skinhead-1 (Caenorhabditis elegans, UniProt P34707); type: functional
T2 sequence (P34707 whole entry): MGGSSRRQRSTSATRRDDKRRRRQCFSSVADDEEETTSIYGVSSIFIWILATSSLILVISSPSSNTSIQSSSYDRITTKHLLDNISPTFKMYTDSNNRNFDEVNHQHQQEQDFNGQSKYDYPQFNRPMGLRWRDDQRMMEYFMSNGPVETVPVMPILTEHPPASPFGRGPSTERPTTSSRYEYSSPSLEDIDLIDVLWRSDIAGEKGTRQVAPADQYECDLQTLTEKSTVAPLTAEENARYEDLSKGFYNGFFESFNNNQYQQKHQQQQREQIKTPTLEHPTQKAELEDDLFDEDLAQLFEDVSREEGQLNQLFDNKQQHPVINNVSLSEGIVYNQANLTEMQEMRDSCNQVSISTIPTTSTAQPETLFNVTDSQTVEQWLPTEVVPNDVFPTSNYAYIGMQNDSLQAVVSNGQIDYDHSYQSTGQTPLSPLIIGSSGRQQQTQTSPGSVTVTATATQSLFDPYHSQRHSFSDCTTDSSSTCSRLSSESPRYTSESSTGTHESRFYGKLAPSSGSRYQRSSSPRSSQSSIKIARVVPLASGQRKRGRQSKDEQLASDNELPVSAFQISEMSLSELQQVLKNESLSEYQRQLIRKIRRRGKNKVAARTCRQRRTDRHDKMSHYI

[4] = THP-1 cell cytotoxicity, dose response, cytotoxicity control for non-replicating M. tuberculosis project (AID 489025); type: functional
[5] = biological target: T3, Cytochrome P450 3A4 (Homo sapiens, UniProt P08684); conditions: Potency
T3 sequence (P08684 whole entry): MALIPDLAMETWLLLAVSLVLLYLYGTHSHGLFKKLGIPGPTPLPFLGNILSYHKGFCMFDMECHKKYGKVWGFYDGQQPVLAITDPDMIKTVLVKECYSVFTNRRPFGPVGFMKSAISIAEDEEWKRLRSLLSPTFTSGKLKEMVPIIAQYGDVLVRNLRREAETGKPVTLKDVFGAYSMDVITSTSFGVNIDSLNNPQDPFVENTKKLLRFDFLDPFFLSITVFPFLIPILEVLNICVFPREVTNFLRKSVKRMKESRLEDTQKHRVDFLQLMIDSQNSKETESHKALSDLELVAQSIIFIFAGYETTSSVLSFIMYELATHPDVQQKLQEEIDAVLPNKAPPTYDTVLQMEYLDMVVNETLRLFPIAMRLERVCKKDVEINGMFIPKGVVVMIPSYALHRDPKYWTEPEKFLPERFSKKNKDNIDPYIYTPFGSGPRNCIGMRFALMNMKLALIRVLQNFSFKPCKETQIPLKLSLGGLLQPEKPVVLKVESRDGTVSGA

[6] = cells; type: functional, cell-based
[7] = cells; type: functional, cell-based; remark: listed apart in the source
[8] = biological target: T4, Fatty acid synthase (Homo sapiens, UniProt P49327); experiment: inhibition of human FAS-TE enzyme activity – biochemical, endpoint fluorescence intensity, uHTS hits, dose response (AID 624327); type: functional;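 further: fluorescence from hydrolysis of an O-methyl fluorescein acyl ester substrate by the enzyme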
T4 sequence (P49327 whole entry): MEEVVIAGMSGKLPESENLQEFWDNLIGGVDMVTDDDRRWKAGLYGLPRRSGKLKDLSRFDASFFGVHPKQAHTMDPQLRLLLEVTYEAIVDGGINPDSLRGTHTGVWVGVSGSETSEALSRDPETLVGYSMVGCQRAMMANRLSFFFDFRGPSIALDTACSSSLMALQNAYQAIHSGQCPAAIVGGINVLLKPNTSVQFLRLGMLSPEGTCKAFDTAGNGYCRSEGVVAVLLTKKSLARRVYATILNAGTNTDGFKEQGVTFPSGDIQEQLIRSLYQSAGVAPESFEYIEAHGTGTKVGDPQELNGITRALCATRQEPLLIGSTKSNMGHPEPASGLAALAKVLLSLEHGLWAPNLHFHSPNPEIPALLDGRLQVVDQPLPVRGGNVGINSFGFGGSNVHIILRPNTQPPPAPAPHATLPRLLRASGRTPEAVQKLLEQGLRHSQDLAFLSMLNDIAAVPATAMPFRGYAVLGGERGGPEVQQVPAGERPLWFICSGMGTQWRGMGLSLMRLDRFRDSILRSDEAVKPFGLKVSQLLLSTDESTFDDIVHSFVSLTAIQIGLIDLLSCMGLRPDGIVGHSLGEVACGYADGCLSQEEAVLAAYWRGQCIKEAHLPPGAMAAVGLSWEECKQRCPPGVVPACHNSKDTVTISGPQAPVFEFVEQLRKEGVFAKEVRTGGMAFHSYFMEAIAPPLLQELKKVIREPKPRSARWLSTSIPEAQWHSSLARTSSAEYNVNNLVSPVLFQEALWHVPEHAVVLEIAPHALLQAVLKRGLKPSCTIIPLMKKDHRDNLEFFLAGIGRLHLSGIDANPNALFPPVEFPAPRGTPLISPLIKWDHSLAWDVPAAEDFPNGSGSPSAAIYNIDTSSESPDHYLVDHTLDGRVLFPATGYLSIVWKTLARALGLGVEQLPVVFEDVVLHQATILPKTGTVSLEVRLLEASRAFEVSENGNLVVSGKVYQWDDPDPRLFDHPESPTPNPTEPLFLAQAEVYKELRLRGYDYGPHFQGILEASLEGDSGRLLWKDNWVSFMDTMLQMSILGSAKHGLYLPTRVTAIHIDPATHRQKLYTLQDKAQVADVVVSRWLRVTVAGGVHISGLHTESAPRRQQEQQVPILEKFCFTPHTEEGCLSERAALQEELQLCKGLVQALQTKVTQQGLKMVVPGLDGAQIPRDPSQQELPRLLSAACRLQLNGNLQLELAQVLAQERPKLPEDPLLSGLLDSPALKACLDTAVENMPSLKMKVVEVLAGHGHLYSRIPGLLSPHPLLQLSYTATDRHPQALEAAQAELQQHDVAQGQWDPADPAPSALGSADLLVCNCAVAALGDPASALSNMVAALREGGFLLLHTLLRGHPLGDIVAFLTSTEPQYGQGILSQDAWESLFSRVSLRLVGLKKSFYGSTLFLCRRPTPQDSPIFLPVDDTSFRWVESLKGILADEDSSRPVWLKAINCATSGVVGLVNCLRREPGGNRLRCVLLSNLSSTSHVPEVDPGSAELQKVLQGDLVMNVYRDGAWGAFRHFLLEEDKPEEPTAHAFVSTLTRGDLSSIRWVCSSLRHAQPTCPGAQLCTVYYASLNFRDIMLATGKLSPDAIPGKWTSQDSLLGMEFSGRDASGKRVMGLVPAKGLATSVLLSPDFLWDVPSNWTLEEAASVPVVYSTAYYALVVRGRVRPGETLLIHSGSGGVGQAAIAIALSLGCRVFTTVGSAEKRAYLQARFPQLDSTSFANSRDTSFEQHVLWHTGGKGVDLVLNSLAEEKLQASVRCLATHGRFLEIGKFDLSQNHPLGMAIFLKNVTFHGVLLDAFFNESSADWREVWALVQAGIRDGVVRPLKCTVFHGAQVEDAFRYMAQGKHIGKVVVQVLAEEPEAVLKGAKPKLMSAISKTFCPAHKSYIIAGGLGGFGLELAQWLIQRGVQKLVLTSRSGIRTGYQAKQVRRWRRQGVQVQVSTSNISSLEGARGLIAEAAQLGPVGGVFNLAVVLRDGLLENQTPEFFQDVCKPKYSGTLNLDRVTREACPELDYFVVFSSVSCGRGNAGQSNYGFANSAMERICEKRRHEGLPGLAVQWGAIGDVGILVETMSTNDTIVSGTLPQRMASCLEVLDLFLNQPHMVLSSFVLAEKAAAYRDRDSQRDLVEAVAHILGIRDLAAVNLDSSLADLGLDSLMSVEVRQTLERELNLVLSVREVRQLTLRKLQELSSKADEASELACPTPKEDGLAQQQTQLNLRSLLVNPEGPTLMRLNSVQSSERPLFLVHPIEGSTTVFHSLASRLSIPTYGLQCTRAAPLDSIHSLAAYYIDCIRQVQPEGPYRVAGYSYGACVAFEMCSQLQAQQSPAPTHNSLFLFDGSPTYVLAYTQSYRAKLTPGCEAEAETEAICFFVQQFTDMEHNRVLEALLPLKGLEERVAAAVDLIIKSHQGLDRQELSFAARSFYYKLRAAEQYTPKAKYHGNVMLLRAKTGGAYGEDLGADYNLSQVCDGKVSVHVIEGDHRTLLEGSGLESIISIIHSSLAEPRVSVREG

[9] = biological target: T4, Fatty acid synthase; experiment: inhibition of human FAS-TE enzyme activity – biochemical, kinetic fluorescence intensity, dose response (AID 624326); type: functional;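 further: rate of fluorescence rise from hydrolysis of a fluorogenic O-methyl fluorescein ester substrate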
[10] = Luminescence Cell-Based Dose Retest to Confirm Inhibitors of Cancer Stem Cells. [Related pubchem assays (depositor defined):AID2717, AID2721]; type: functional; conditions: Homo sapiens
[11] = biological target: T3, Cytochrome P450 3A4
[12] = test system: SN12K1; experiment: cells; type: functional; conditions: Homo sapiens
[13] = test system: P388; experiment: cells; type: functional; conditions: Mus musculus
[14] = test system: P388/ADR; experiment: cells; type: functional; conditions: Mus musculus
[15] = biological target: Paired box protein Pax-8 (Homo sapiens, UniProt Q06710); experiment: PAX8 transcriptional activity inhibition in RMG-I – RMG-I cells, luciferase, cherry-pick, dose response (AID 687027); type: functional, cell-based;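 further: luciferase reporter driven by Pax8 target thyroperoxidase promoter measured by SteadyGlo luminescence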
Chain of Paired box protein Pax-8 (Q06710 whole entry): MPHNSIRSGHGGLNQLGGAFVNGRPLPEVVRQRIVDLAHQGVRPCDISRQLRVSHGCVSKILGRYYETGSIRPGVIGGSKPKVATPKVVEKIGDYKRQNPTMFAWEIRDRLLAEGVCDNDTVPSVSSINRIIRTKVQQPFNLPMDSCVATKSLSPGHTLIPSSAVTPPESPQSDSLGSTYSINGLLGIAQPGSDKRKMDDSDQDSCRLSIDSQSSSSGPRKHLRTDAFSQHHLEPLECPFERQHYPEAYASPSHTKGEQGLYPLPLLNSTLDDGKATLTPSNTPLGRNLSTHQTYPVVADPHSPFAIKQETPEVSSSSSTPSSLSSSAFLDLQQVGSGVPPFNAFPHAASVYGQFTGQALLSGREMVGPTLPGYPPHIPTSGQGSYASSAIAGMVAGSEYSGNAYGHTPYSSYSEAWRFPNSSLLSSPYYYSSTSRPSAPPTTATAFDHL

[16] = cells; type: functional
[17] = NIH3T3 cell viability loss – ATP luminescence, mouse fibroblasts, counter-screen, dose response (AID 2010); type: functional, cell-based;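 further: cells exposed to compound for about 90 hours before reading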
[18] = Trypanosoma cruzi growth suppression in host cells – NIH3T3 host cells, beta-gal luminescence, confirmation (AID 2044); type: functional, cell-based;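 further: intracellular parasites grown in NIH/3T3 mouse fibroblasts as host cells; luminescent beta-galactosidase reporter signal from transgenic T. cruzi replicating inside host cells; inhibitors lower the luminescence signal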
[19] = test system: INS1; experiment: INS-1E survival protection against cytokine death – cell-based, luminescence, retest, dose response (AID 449756); type: functional; conditions: Rattus norvegicus;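 further: cell death triggered by IL-1 beta plus TNF-alpha plus IFN-gamma mixture; protective hits raise ATP signal compared with cytokine alone wells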

With `Clc1ccc(OCCCCSc2ncccn2)cc1` the IC50 [1] was > 66 µM (inactive), the IC50 [2] was > 66 µM (inactive) and the IC50 [3] was 21.7 µM (active).
In the case of `CC[n+]1c(/C=C(\C)Nc2ccccc2)sc2ccccc21`, the CC50 [4] is reported as 30.1 µM (active).
For `CC(C)(/N=N/C(C)(C)C(=N)N)C(=N)N`, the AC50 [5] was 39.8 µM (inconclusive).
With `CC(=O)Nc1ccc(SC[C@H](Cc2ccccc2)N2CC[C@@H](C(C)(C)C)CCC2=O)cc1` the IC50 [1] was > 66 µM (inactive) and the IC50 [2] was > 66 µM (inactive).
With `Cc1ccc(-c2cc(C(F)(F)F)n3nc(C(=O)Nc4c(C)n(C)n(-c5ccccc5)c4=O)cc3n2)cc1` the EC50 [6] was > 350 µM (not active) and the EC50 [7] was > 350 µM (not active).
With `COC1=C[C@H]2[C@H]3Cc4ccc(OC)c(O)c4[C@@]2(CCN3C)CC1=O` the AC50 [5] was 31.6 µM (inconclusive).
For `Oc1cc(Cl)ccc1Cl`, the AC50 [5] was 31.6 µM (inconclusive).
In the case of `COC(=O)C(C(=O)OC)C1O[C@@]23COCCC2(C)C3c2ccccc21` (stereo partly specified), the AC50 [5] is reported as 3.16 µM (inconclusive).
For `Cc1ccc([N+](=O)[O-])cc1NC(=O)CCSc1ccc(Cl)cc1`, the IC50 [8] was 6.23 µM (active) and the IC50 [9] was 7.75 µM (active).
For `CCOC(=O)N1CCc2[nH]c3ccc(C)cc3c2C1`, the IC50 [1] was > 66 µM (inactive) and the IC50 [2] was 55.2 µM (inactive).
In the case of `CCOC(=O)CSC1=C(C#N)C(c2sccc2C)CC(=O)N1` (stereo unspecified), the AC50 [10] is reported as 0.722 µM (active) and the AC50 [11] is reported as 15.8 µM (inconclusive).
For `CCc1cccc(NC(=O)COC(=O)c2cc([N+](=O)[O-])ccc2N2CCOCC2)c1`, the IC50 [8] was 0.29 µM (active) and the IC50 [9] was 0.393 µM (active).
With `COc1cc(-c2ccc3oc(-c4cccc(C)c4)c(C#CC4(O)CCCCC4)c3c2)cc(OC)c1OC` the AC50 [10] was 8.67 µM (active).
For `Cc1ccc(-c2nnc(COC(=O)c3cc(O)nc4ccccc34)o2)cc1`, the IC50 [8] was 10.4 µM (active) and the IC50 [9] was 9.54 µM (active).
With `O=S1(=O)C(=C(c2ccccc2)c2ccccc2)S(=O)(=O)c2ccccc21` the GI50 [12] was 28.2 µM (inactive), the GI50 [13] was > 31.6 µM (inactive) and the GI50 [14] was > 100 µM (inactive).
For `CCCCCCCCCCCC[S+](C)C`, the GI50 [12] was 5.33 µM (inactive), the GI50 [13] was 0.236 µM (active) and the GI50 [14] was 27.8 µM (inactive).
With `COc1ccc2c(c1)CCc1c(CO)c(COC(=O)NC(C)C)n(C)c1-2` the GI50 [12] was 3.32 µM (inactive), the GI50 [13] was 1.17 µM (inactive) and the GI50 [14] was 2.2 µM (inactive).
In the case of `O=C(COC(=O)c1cc([N+](=O)[O-])ccc1N1CCOCC1)NCc1ccccc1`, the IC50 [8] is reported as 0.841 µM (active) and the IC50 [9] is reported as 0.683 µM (active).
For `C[C@H](CO)N1C[C@H](C)[C@@H](CN(C)S(=O)(=O)c2ccc(Cl)cc2)OCCCC[C@H](C)Oc2ccc(NS(=O)(=O)c3ccc(Cl)cc3)cc2C1=O`, the AC50 [15] was 4.34 µM (active).
For `O=c1[nH]c(=O)n([C@H]2CCCO2)cc1F`, the GI50 [12] was 369 µM (inactive), the GI50 [13] was 24.3 µM (inactive) and the GI50 [14] was 37.7 µM (inactive).
In the case of `CC(/C=C/c1ccccc1F)=N\NC(=O)c1ccccc1`, the IC50 [16] is reported as 21.8 µM (active) and the CC50 [4] is reported as > 40 µM (active).
In the case of `O=c1c2ccccc2nc(COc2ccccc2)n1/N=C/c1ccc(O)cc1O`, the EC50 [17] is reported as 8.68 µM (active), the EC50 [6] is reported as 31.9 µM (active) and the EC50 [18] is reported as 2.48 µM (active). The EC50 [7] was 10.6 µM (active) and the AC50 [19] was 4.63 µM (active).
In the case of `Cc1c2ccccc2c(C)c2c1ccc1ccccc12`, the AC50 [5] is reported as 12.6 µM (inconclusive).
For `O=C(/C=C/c1ccccc1)c1ccc(O)cc1` [4'-HYDROXYCHALCONE], the AC50 [5] was 39.8 µM (inconclusive).
With `O=C1C=CC(=O)c2c(O)cccc21` [JUGLONE] the AC50 [5] was 39.8 µM (inconclusive).
In the case of `CNNCc1ccc(C(=O)NC(C)C)cc1` [PROCARBAZINE HYDROCHLORIDE], the GI50 [12] is reported as > 456 µM (inactive), the GI50 [13] is reported as > 500 µM (inactive) and the GI50 [14] is reported as > 485 µM (inactive).
